Assay results from patent publication US20240092835A1, “NOVEL PEPTIDES CAPABLE OF ALTERING NK CELL ACTIVITY” (Massachusetts Institute of Technology, priority 2022, published 2024).
Where no end group is shown, it is not given here.

Tests used:
HLA-E = target: T1, HLA-E (Homo sapiens, UniProt P13747); assay: HLA-E surface stabilization assay with RMA-S/HLA-E cells; type: cell-based; settings: 30 μM peptide, 16 hours; for HLA-E surface expression stability (GeoMFI): anti-HLA-E antibody
T1 construct: expressed in transfected cells; host or cells: RMA-S/HLA-E cells (antigen processing-defective lymphoma cell line)
Experimental: HLA-E surface expression was assessed by measuring geometric mean fluorescence intensity (GeoMFI) in RMA-S cells following immunofluorescence staining with an anti-HLA-E antibody (Table 14). Increased GeoMFI was indicative of increased HLA-E surface expression stability following novel peptide exposures (FIG. 3).

CD94/NKG2C = CD94/NKG2C (Homo sapiens, UniProt P26717+Q13241); assay: Steady-state surface plasmon resonance of peptide-HLA-E complex with CD94/NKG2C; type: binding; settings: for Binding of peptide-HLA-E complexes to CD94/NKG2C normalized to a theoretical Rmax: steady-state SPR
Experimental: Binding affinity of novel peptides linked to HLA-E was determined using surface plasmon resonance (SPR), a methodology used to study protein-protein interactions (Tables 15-19). The peptide-HLA-E complex (generated as a single chain trimer) was immobilized on the sensor chip surface and CD94/NKG2A or CD94/NKG2C were flowed over. Steady-state surface plasmon resonance experiments were performed with a Biacore T200 instrument. CD94/NKG2x in HBS-EP+ buffer was injected as analyte in a concentration range of 0.1 μM to 102.4 μM and flow rate of 10 μL/min at 25° C. Data was fit with Prism 9.4 (GraphPad Software Inc; San Diego CA) to a “one site, specific binding” model. Series S CM5 chips were coupled to neutravidin and utilized. Biotinylated pMHC was immobilized at approximately 400 RU. KD values calculated by Biacore software are reported. Rmax, fit values were calculated by Biacore software. Rmax, theoretical values were calculated using the analyte/ligand mass ratio (0.66) multiplied by the amount of ligand coupled to the chip.

NKG2A+/NKG2C− NK cells = assay: NK cell activation markers in NKG2A+/NKG2C- NK cells incubated with peptide and K562 expressing HLA-E (inhibition); type: cell-based, human; settings: for effect on NKG2A+/NKG2C− NK cell inhibition (in words): K562 expressing HLA-E, CD107a, IFNG, TNF, CCL3; for percentage of CCL3+ NK cells / percentage of CD107a+ NK cells / percentage of IFNG+ NK cells / percentage of TNF+ NK cells: NKG2A+/NKG2C- NK cells, K562/HLA-E
Summary of the method: (§1)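 Percent of NK cells positive for cell-surface markers was measured after exposure to K562 targets expressing HLA-E and loaded with human- or HCMV-proteome-derived peptides. A decrease means inhibition, an increase activation; NKG2A−/NKG2C− cells served as controls.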

NKG2A−/NKG2C+ NK cells [1] = assay: NKG2A-/NKG2C+ NK cell activation with peptide and RMA-S cells expressing HLA-E; type: cell-based; settings: RMA-S cells expressing HLA-E, NKG2A−/NKG2C+ NK cells
Experimental: An antigen processing-defective lymphoma cell line (RMA-S), with a low-level expression of HLA-E, were incubated with the novel peptides to determine the inhibitory strength on NKG2A−/NKG2C+NK cells relative to positive control sequences with differential effects ([…] (SEQ ID NO: 19)/VMAPRTLFL (SEQ ID NO: 18)). The effects of the peptides on NK cell inhibition were determined by measuring four markers of NK cell activation (CD107a, IFNG, TNF, CCL3) in NKG2A−/NKG2C+NK cells (FIGS. 2A-2D). Activation was indicated by an increase in percent cells positive for cell surface markers.

NKG2A−/NKG2C+ NK cells [2] = assay: NK cell activation markers in NKG2A-/NKG2C+ NK cells incubated with peptide and K562 expressing HLA-E (activation); type: cell-based, human; settings: for effect on NKG2A−/NKG2C+ NK cell activation (in words): K562 expressing HLA-E, CD107a, IFNG, TNF, CCL3; for percentage of CCL3+ NK cells / percentage of CD107+ NK cells / percentage of IFNG+ NK cells / percentage of TNF+ NK cells: NKG2A-/NKG2C+ NK cells, K562/HLA-E
Summary of the method: as §1

T1 sequence (P13747 22-358): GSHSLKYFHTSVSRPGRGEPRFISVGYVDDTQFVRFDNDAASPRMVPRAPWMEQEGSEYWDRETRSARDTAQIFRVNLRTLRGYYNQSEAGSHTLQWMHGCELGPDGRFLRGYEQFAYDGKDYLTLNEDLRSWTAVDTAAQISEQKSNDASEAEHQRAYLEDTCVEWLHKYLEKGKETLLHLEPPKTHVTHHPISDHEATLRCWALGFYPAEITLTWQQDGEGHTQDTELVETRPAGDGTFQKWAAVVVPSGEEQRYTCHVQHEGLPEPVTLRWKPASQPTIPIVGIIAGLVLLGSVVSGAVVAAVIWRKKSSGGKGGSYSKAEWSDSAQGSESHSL
T1 sequence (P61769 21-119 partner): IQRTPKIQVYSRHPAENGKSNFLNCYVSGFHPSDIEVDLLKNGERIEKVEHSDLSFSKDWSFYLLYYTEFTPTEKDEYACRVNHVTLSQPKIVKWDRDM
CD94/NKG2C, sequence (P26717 94-231 limits assumed): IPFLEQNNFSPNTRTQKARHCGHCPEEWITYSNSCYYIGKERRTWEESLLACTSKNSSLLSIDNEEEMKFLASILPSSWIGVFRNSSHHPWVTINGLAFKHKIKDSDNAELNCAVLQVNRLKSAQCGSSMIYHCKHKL
CD94/NKG2C, sequence (Q13241 32-179 limits assumed): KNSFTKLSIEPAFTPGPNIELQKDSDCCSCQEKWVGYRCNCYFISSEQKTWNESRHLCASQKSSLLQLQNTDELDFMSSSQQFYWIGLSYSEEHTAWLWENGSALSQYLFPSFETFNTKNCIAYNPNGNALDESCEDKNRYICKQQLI

## TAPARTMFL [human13, TAPARTMFL]
HLA-E
  HLA-E surface expression stabilization strength (in words): lower
HLA-E; Trial 1
  HLA-E surface expression stability (GeoMFI): 851 GeoMFI
HLA-E; Trial 2
  HLA-E surface expression stability (GeoMFI): 887 GeoMFI
HLA-E; Trial 3
  HLA-E surface expression stability (GeoMFI): 673 GeoMFI
HLA-E; Trial 4
  HLA-E surface expression stability (GeoMFI): 1187 GeoMFI
HLA-E; approximate value
  HLA-E surface expression stabilization strength, approximate GeoMFI: approximately 1×10^3 GeoMFI
CD94/NKG2C; CD94/NKG2C concentration 0 μM
  binding of peptide-HLA-E complex to CD94/NKG2C normalized to a fitted Rmax: 0.007
CD94/NKG2C; CD94/NKG2C concentration 0.1 μM
  binding of peptide-HLA-E complex to CD94/NKG2C normalized to a fitted Rmax: 0.017
CD94/NKG2C; CD94/NKG2C concentration 0.2 μM
  binding of peptide-HLA-E complex to CD94/NKG2C normalized to a fitted Rmax: 0.023
CD94/NKG2C; CD94/NKG2C concentration 0.4 μM
  binding of peptide-HLA-E complex to CD94/NKG2C normalized to a fitted Rmax: 0.040
CD94/NKG2C; CD94/NKG2C concentration 0.8 μM
  binding of peptide-HLA-E complex to CD94/NKG2C normalized to a fitted Rmax: 0.067
CD94/NKG2C; CD94/NKG2C concentration 1.6 μM
  binding of peptide-HLA-E complex to CD94/NKG2C normalized to a fitted Rmax: 0.117
CD94/NKG2C; CD94/NKG2C concentration 3.2 μM
  binding of peptide-HLA-E complex to CD94/NKG2C normalized to a fitted Rmax: 0.202
CD94/NKG2C; CD94/NKG2C concentration 6.4 μM
  binding of peptide-HLA-E complex to CD94/NKG2C normalized to a fitted Rmax: 0.317
CD94/NKG2C; CD94/NKG2C concentration 12.8 μM
  binding of peptide-HLA-E complex to CD94/NKG2C normalized to a fitted Rmax: 0.462
CD94/NKG2C; CD94/NKG2C concentration 25.6 μM
  binding of peptide-HLA-E complex to CD94/NKG2C normalized to a fitted Rmax: 0.613
CD94/NKG2C; CD94/NKG2C concentration 51.2 μM
  binding of peptide-HLA-E complex to CD94/NKG2C normalized to a fitted Rmax: 0.746
CD94/NKG2C; CD94/NKG2C concentration 102.4 μM
  binding of peptide-HLA-E complex to CD94/NKG2C normalized to a fitted Rmax: 0.904
CD94/NKG2C; CD94/NKG2C analyte concentration 0 μM
  Binding of peptide-HLA-E complexes to CD94/NKG2C normalized to a theoretical Rmax: 0.005
CD94/NKG2C; CD94/NKG2C analyte concentration 0.1 μM
  Binding of peptide-HLA-E complexes to CD94/NKG2C normalized to a theoretical Rmax: 0.012
CD94/NKG2C; CD94/NKG2C analyte concentration 0.2 μM
  Binding of peptide-HLA-E complexes to CD94/NKG2C normalized to a theoretical Rmax: 0.017
CD94/NKG2C; CD94/NKG2C analyte concentration 0.4 μM
  Binding of peptide-HLA-E complexes to CD94/NKG2C normalized to a theoretical Rmax: 0.030
CD94/NKG2C; CD94/NKG2C analyte concentration 0.8 μM
  Binding of peptide-HLA-E complexes to CD94/NKG2C normalized to a theoretical Rmax: 0.050
CD94/NKG2C; CD94/NKG2C analyte concentration 1.6 μM
  Binding of peptide-HLA-E complexes to CD94/NKG2C normalized to a theoretical Rmax: 0.086
CD94/NKG2C; CD94/NKG2C analyte concentration 3.2 μM
  Binding of peptide-HLA-E complexes to CD94/NKG2C normalized to a theoretical Rmax: 0.149
CD94/NKG2C; CD94/NKG2C analyte concentration 6.4 μM
  Binding of peptide-HLA-E complexes to CD94/NKG2C normalized to a theoretical Rmax: 0.234
CD94/NKG2C; CD94/NKG2C analyte concentration 12.8 μM
  Binding of peptide-HLA-E complexes to CD94/NKG2C normalized to a theoretical Rmax: 0.342
CD94/NKG2C; CD94/NKG2C analyte concentration 25.6 μM
  Binding of peptide-HLA-E complexes to CD94/NKG2C normalized to a theoretical Rmax: 0.454
CD94/NKG2C; CD94/NKG2C analyte concentration 51.2 μM
  Binding of peptide-HLA-E complexes to CD94/NKG2C normalized to a theoretical Rmax: 0.552
CD94/NKG2C; CD94/NKG2C analyte concentration 102.4 μM
  Binding of peptide-HLA-E complexes to CD94/NKG2C normalized to a theoretical Rmax: 0.669
NKG2A+/NKG2C− NK cells; listed as SEQ ID NO. 5
  effect on NKG2A+/NKG2C− NK cell inhibition (in words): no or minimal effect
NKG2A+/NKG2C− NK cells; listed as h13
  effect on NKG2A+/NKG2C− NK cell inhibition (in words): no effect
NKG2A+/NKG2C− NK cells; Trial 1
  percentage of CCL3+ NK cells: 52.5%
  percentage of CD107a+ NK cells: 31.2%
  percentage of IFNG+ NK cells: 13%
  percentage of TNF+ NK cells: 3.99%
NKG2A+/NKG2C− NK cells; Trial 2
  percentage of CCL3+ NK cells: 75.9%
  percentage of CD107a+ NK cells: 50.6%
  percentage of IFNG+ NK cells: 30.8%
  percentage of TNF+ NK cells: 13.8%
NKG2A+/NKG2C− NK cells; Trial 3
  percentage of CCL3+ NK cells: 52.6%
  percentage of CD107a+ NK cells: 44.4%
  percentage of IFNG+ NK cells: 31.7%
  percentage of TNF+ NK cells: 17%
NKG2A+/NKG2C− NK cells; Trial 4
  percentage of CCL3+ NK cells: 47.3%
  percentage of CD107a+ NK cells: 37.6%
  percentage of IFNG+ NK cells: 21.7%
  percentage of TNF+ NK cells: 12.6%
NKG2A+/NKG2C− NK cells; Trial 5
  percentage of CCL3+ NK cells: 48.9%
  percentage of CD107a+ NK cells: 32.2%
  percentage of IFNG+ NK cells: 16.9%
  percentage of TNF+ NK cells: 7.45%
NKG2A+/NKG2C− NK cells; Trial 6
  percentage of CCL3+ NK cells: 39.3%
  percentage of CD107a+ NK cells: 28.2%
  percentage of IFNG+ NK cells: 8.81%
  percentage of TNF+ NK cells: 5.68%
NKG2A−/NKG2C+ NK cells [1]
  increase in CCL3+ NK cells (in words): slight increases
  increase in CD107a+ NK cells (in words): slight increases
  increase in IFNG+ NK cells (in words): no increase
  increase in TNF+ NK cells (in words): no increase
NKG2A−/NKG2C+ NK cells [2]; listed as SEQ ID NO. 5
  effect on NKG2A−/NKG2C+ NK cell activation (in words): activate
NKG2A−/NKG2C+ NK cells [2]; listed as h13
  effect on NKG2A−/NKG2C+ NK cell activation (in words): activated
NKG2A−/NKG2C+ NK cells [2]; Trial 1
  percentage of CCL3+ NK cells: 56.9%
  percentage of CD107+ NK cells: 38.3%
  percentage of IFNG+ NK cells: 18.2%
  percentage of TNF+ NK cells: 9.29%
NKG2A−/NKG2C+ NK cells [2]; Trial 2
  percentage of CCL3+ NK cells: 74.9%
  percentage of CD107+ NK cells: 57%
  percentage of IFNG+ NK cells: 28.7%
  percentage of TNF+ NK cells: 20.7%
NKG2A−/NKG2C+ NK cells [2]; Trial 3
  percentage of CCL3+ NK cells: 72.4%
  percentage of CD107+ NK cells: 71.2%
  percentage of IFNG+ NK cells: 49.2%
  percentage of TNF+ NK cells: 37.9%
NKG2A−/NKG2C+ NK cells [2]; Trial 4
  percentage of CCL3+ NK cells: 60.7%
  percentage of CD107+ NK cells: 57.1%
  percentage of IFNG+ NK cells: 40.8%
  percentage of TNF+ NK cells: 33%
NKG2A−/NKG2C+ NK cells [2]; Trial 5
  percentage of CCL3+ NK cells: 61.9%
  percentage of CD107+ NK cells: 56.2%
  percentage of IFNG+ NK cells: 34.2%
  percentage of TNF+ NK cells: 27.4%
NKG2A−/NKG2C+ NK cells [2]; Trial 6
  percentage of CCL3+ NK cells: 40.7%
  percentage of CD107+ NK cells: 29.1%
  percentage of IFNG+ NK cells: 14.3%
  percentage of TNF+ NK cells: 8.92%
